Measurements: patent publication US9624209B2, “Substituted phenylureas and phenylamides as vanilloid receptor ligands” (Gruenenthal GmbH, priority 2009, dated 2017)

Target: T1, vanilloid receptor 1 (VR1/TRPV1 receptor) (Homo sapiens, UniProt Q8NER1)
T1 construct: expressed in transfected cells; host or cells: CHO K1 cells (ECACC), stably transfected
Assay: VR1/TRPV1 receptor affinity, capsaicin stimulus (human)
Type: cell-based, human being
Design: key to (f) Ki (human being) [nM] Cap: result in words: AG=agonist; pAG=partial agonist; NE=no effect
Details: for (f) Ki (human being) [nM] Cap: inhibition (as a percentage): @ 5 μM; for (f) Ki (human being) [nM] Cap: inhibition (as a percentage) / (f) Ki (human being) [nM] Cap: result in words: Tables 8-12; for Ki: Tables 8-12, read-out: (f) Ki (human being) [nM] Cap

T1 sequence (Q8NER1 whole entry): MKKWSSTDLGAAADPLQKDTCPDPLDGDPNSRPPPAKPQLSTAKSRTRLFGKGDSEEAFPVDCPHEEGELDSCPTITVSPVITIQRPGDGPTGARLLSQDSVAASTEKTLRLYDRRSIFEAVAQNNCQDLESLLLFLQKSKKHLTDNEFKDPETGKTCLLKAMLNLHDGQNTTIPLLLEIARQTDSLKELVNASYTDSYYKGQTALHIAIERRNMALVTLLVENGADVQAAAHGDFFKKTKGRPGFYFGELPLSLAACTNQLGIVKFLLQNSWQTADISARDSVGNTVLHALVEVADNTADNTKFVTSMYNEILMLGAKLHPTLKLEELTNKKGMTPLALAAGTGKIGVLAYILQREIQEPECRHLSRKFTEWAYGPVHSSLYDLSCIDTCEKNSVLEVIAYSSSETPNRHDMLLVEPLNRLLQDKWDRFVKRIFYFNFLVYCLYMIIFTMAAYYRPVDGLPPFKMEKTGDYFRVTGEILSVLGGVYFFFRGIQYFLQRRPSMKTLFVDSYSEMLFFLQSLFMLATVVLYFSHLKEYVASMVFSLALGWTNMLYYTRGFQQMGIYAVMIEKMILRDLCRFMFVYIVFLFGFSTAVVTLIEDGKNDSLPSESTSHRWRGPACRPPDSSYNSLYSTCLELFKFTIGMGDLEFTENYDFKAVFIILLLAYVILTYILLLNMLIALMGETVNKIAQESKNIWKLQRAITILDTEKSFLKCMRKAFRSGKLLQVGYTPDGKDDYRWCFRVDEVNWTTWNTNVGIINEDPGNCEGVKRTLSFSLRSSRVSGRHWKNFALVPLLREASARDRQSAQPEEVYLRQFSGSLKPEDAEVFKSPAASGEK

Compound	Ki	other results
1-[[2-(3,4-Difluoro-phenyl)-5-(trifluoromethyl)-2H-pyrazol-3-yl]-methyl]-3-[3-fluoro-4-(2-hydroxy-ethoxy-methyl)-phenyl]-urea [Example A132]		(f) Ki (human being) [nM] Cap: inhibition (as a percentage): 48% @ 5 μM
1-[[5-tert-Butyl-2-(3-chlorophenyl)-2H-pyrazol-3-yl]-methyl]-3-[3-fluoro-4-(hydroxymethyl)-phenyl]-urea [Example A55]	3 nM	
1-[[5-tert-Butyl-2-(3-fluorophenyl)-2H-pyrazol-3-yl]-methyl]-3-[3-fluoro-4-(3-hydroxy-azetidin-1-yl)-phenyl]-urea [Example C8]		(f) Ki (human being) [nM] Cap: inhibition (as a percentage): 53% @ 5 μM
2-Chloro-4-[[[2-(3-chlorophenyl)-5-(trifluoromethyl)-2H-pyrazol-3-yl]-methyl-carbamoyl]amino]-benzoic acid [Example E54]		(f) Ki (human being) [nM] Cap: inhibition (as a percentage): 20% @ 5 μM
4-[1-[[2-(3-Chlorophenyl)-5-(trifluoromethyl)-2H-pyrazol-3-yl]-methyl-carbamoyl]-ethyl]-2-fluoro-N-(oxetan-3-yl)-benzamide [Example E19]	41 nM	
4-[1-[[2-(3-Chlorophenyl)-5-(trifluoromethyl)-2H-pyrazol-3-yl]-methyl-carbamoyl]-ethyl]-2-fluoro-N-[4-(trifluoromethyl)-phenyl]-benzamide [Example E48]	27 nM	
4-[1-[[2-(3-Chlorophenyl)-5-(trifluoromethyl)-2H-pyrazol-3-yl]-methyl-carbamoyl]-ethyl]-2-fluoro-N-methyl-benzamide [Example E11]	11 nM	
4-[1-[[2-(3-Chlorophenyl)-5-(trifluoromethyl)-2H-pyrazol-3-yl]-methyl-carbamoyl]-ethyl]-2-fluoro-N-thiazol-2-yl-benzamide [Example E52]	59 nM	
4-[1-[[5-tert-Butyl-2-(3-chloro phenyl)-2H-pyrazol-3-yl]-methyl-carbamoyl]-ethyl]-N-(3-fluorophenyl)-benzamide [Example E40]	4 nM	
4-[1-[[5-tert-Butyl-2-(3-chlorophenyl)-2H-pyrazol-3-yl]-methyl-carbamoyl]-ethyl]-2-fluoro-N-[4-(trifluoromethyl)-phenyl]-benzamide [Example E49]	3 nM	
4-[1-[[5-tert-Butyl-2-(3-chlorophenyl)-2H-pyrazol-3-yl]-methyl-carbamoyl]-ethyl]-2-fluoro-N-phenyl-benzamide [Example E29]	5 nM	
4-[1-[[5-tert-Butyl-2-(3-chlorophenyl)-2H-pyrazol-3-yl]-methyl-carbamoyl]-ethyl]-N-(4-chlorophenyl)-2-fluoro-benzamide [Example E35]	2 nM	
4-[1-[[5-tert-Butyl-2-(3-chlorophenyl)-2H-pyrazol-3-yl]-methyl-carbamoyl]-ethyl]-N-(4-chlorophenyl)-benzamide [Example E34]	0.5 nM	
4-[1-[[5-tert-Butyl-2-(3-chlorophenyl)-2H-pyrazol-3-yl]-methyl-carbamoyl]-ethyl]-N-(4-fluorophenyl)-benzamide [Example E42]	1 nM	
4-[1-[[5-tert-Butyl-2-(3-chlorophenyl)-2H-pyrazol-3-yl]-methyl-carbamoyl]-ethyl]-N-[4-(trifluoromethyl)-phenyl]-benzamide [Example E47]	3 nM	
4-[1-[[5-tert-Butyl-2-(3-chlorophenyl)-2H-pyrazol-3-yl]-methyl-carbamoyl]-ethyl]-N-phenyl-benzamide [Example E27]	2 nM	
4-[[[2-(3-Chlorophenyl)-5-(trifluoromethyl)-2H-pyrazol-3-yl]-methyl-carbamoyl]-methyl]-2-fluoro-N-(4-fluorophenyl)-benzamide [Example E38]	3 nM	
4-[[[2-(3-Chlorophenyl)-5-(trifluoromethyl)-2H-pyrazol-3-yl]-methyl-carbamoyl]-methyl]-N-(4-fluorophenyl)-benzamide [Example E36]	14 nM	
4-[[[2-(3-Chlorophenyl)-5-(trifluoromethyl)-2H-pyrazol-3-yl]-methyl-carbamoyl]-methyl]-N-[4-(trifluoromethyl)-phenyl]-benzamide [Example E51]	49 nM	
4-[[[2-(3-Chlorophenyl)-5-(trifluoromethyl)-2H-pyrazol-3-yl]-methyl-carbamoyl]-methyl]-N-phenyl-benzamide [Example E26]	25 nM	

Compound	Ki	other results
4-[[[5-tert-Butyl-2-(3-chlorophenyl)-2H-pyrazol-3-yl]-methyl-carbamoyl]-methyl]-2-fluoro-N-(4-fluorophenyl)-benzamide [Example E39]	2 nM	
4-[[[5-tert-Butyl-2-(3-chlorophenyl)-2H-pyrazol-3-yl]-methyl-carbamoyl]-methyl]-N-(4-chlorophenyl)-benzamide [Example E30]	3 nM	
4-[[[5-tert-Butyl-2-(3-chlorophenyl)-2H-pyrazol-3-yl]-methyl-carbamoyl]-methyl]-N-(4-fluorophenyl)-benzamide [Example E37]	5 nM	
4-[[[5-tert-Butyl-2-(3-chlorophenyl)-2H-pyrazol-3-yl]-methyl-carbamoyl]-methyl]-N-[4-(trifluoromethyl)-phenyl]-benzamide [Example E50]	12 nM	
4-[[[5-tert-Butyl-2-(3-chlorophenyl)-2H-pyrazol-3-yl]-methyl-carbamoyl]amino]-2-chloro-benzoic acid [Example E55]		(f) Ki (human being) [nM] Cap: inhibition (as a percentage): 28% @ 5 μM
4-[[[5-tert-Butyl-2-(3-chlorophenyl)-2H-pyrazol-3-yl]-methyl-carbamoyl]amino]-2-chloro-benzoic acid methyl ester [Example E60]	19 nM	
4-[[[5-tert-Butyl-2-(3-chlorophenyl)-2H-pyrazol-3-yl]-methyl-carbamoyl]amino]-2-fluoro-N,N-dimethyl-benzamide [Example E12]	62 nM	
4-[[[5-tert-Butyl-2-(3-chlorophenyl)-2H-pyrazol-3-yl]-methyl-carbamoyl]amino]-2-methoxy-benzamide [Example E7]	66 nM	
COc1c(F)cc(C(C)C(=O)NCc2cc(C(C)(C)C)nn2-c2ccc(F)c(Cl)c2)cc1F (stereo not shown) [Example A5, N-[[5-tert-Butyl-2-(3-chloro-4-fluoro-phenyl)-2H-pyrazol-3-yl]-methyl]-2-(3,5-difluoro-4-methoxy-phenyl)-propionamide]		(f) Ki (human being) [nM] Cap: result in words: AG
CC(C)(C)c1cc(CNC(=O)Nc2cc(F)c(O)c(F)c2)n(-c2cccc(Cl)c2)n1 [Example A11, 1-[[5-tert-Butyl-2-(3-chlorophenyl)-2H-pyrazol-3-yl]-methyl]-3-(3,5-difluoro-4-hydroxy-phenyl)-urea]		(f) Ki (human being) [nM] Cap: result in words: AG
COc1ccc(NC(=O)NCc2cc(C(C)(C)C)nn2-c2cccc(Cl)c2)cc1OC [Example A13, 1-[[5-tert-Butyl-2-(3-chlorophenyl)-2H-pyrazol-3-yl]-methyl]-3-(3,4-dimethoxyphenyl)-urea]		(f) Ki (human being) [nM] Cap: result in words: AG
COc1cc(NC(=O)NCc2cc(C(F)(F)F)nn2-c2cccc(Cl)c2)ccc1O [Example A15, 1-[[2-(3-Chlorophenyl)-5-(trifluoromethyl)-2H-pyrazol-3-yl]-methyl]-3-(4-hydroxy-3-methoxy-phenyl)-urea]		(f) Ki (human being) [nM] Cap: result in words: AG
COc1ccc(NC(=O)NCc2cc(C(F)(F)F)nn2-c2cccc(Cl)c2)cc1O [Example A16, 1-[[2-(3-Chlorophenyl)-5-(trifluoromethyl)-2H-pyrazol-3-yl]-methyl]-3-(3-hydroxy-4-methoxy-phenyl)-urea]		(f) Ki (human being) [nM] Cap: result in words: AG
COCCOc1ccc(NC(=O)NCc2cc(C(C)(C)C)nn2-c2cccc(Cl)c2)cc1F [Example A17, 1-[[5-tert-Butyl-2-(3-chlorophenyl)-2H-pyrazol-3-yl]-methyl]-3-[3-fluoro-4-(2-methoxy-ethoxy)-phenyl]-urea]		(f) Ki (human being) [nM] Cap: result in words: AG
CC(C)(C)c1cc(CNC(=O)Nc2ccc(OCC(O)CO)c(F)c2)n(-c2cccc(Cl)c2)n1 (stereo not shown) [Example A24, 1-[[5-tert-Butyl-2-(3-chlorophenyl)-2H-pyrazol-3-yl]-methyl]-3-[4-(2,3-dihydroxy-propoxy)-3-fluoro-phenyl]-urea]		(f) Ki (human being) [nM] Cap: result in words: AG
CC(C(=O)NCc1cc(C(C)(C)C)nn1-c1cccc(Cl)c1)c1ccc(CO)c(F)c1 (stereo not shown) [Example A32, N-[[5-tert-Butyl-2-(3-chlorophenyl)-2H-pyrazol-3-yl]-methyl]-2-[3-fluoro-4-(hydroxymethyl)-phenyl]-propionamide]		(f) Ki (human being) [nM] Cap: result in words: AG
CC(C(=O)NCc1cc(C(F)(F)F)nn1-c1cccc(Cl)c1)c1ccc(CO)c(Cl)c1 (stereo not shown) [Example A36, 2-[3-Chloro-4-(hydroxymethyl)-phenyl]-N-[[2-(3-chlorophenyl)-5-(trifluoromethyl)-2H-pyrazol-3-yl]-methyl]-propionamide]	0.3 nM	
CC(C(=O)NCc1cc(C(C)(C)C)nn1-c1cccc(F)c1)c1ccc(CO)c(F)c1 (stereo not shown) [Example A37, N-[[5-tert-Butyl-2-(3-fluorophenyl)-2H-pyrazol-3-yl]-methyl]-2-[3-fluoro-4-(hydroxymethyl)-phenyl]-propionamide]		(f) Ki (human being) [nM] Cap: result in words: AG
CC(C(=O)NCc1cc(C(C)(C)C)nn1-c1ccc(F)c(F)c1)c1ccc(CO)c(F)c1 (stereo not shown) [Example A39, N-[[5-tert-Butyl-2-(3,4-difluoro-phenyl)-2H-pyrazol-3-yl]-methyl]-2-[3-fluoro-4-(hydroxymethyl)-phenyl]-propionamide]		(f) Ki (human being) [nM] Cap: result in words: AG
CC(C(=O)NCc1cc(C(C)(C)C)nn1-c1ccc(F)c(Cl)c1)c1ccc(CO)c(F)c1 (stereo not shown) [Example A41, N-[[5-tert-Butyl-2-(3-chloro-4-fluoro-phenyl)-2H-pyrazol-3-yl]-methyl]-2-[3-fluoro-4-(hydroxymethyl)-phenyl]-propionamide]		(f) Ki (human being) [nM] Cap: result in words: AG
